{"source": "patent US20220054640A1", "about": "“COMPOSITIONS AND METHODS FOR THE DELIVERY OF THERAPEUTIC AGENTS ACROSS THE ROUND WINDOW MEMBRANE” (Decibel Therapeutics, Inc., priority 2018, published 2022)", "key": {"ABR/hearing testing": {"test": "ABR/hearing testing", "format": "in vivo, guinea pig", "procedure": "Prior to ABR recording, the tympanic membrane was inspected for otitis media using a surgical microscope. Animals with otitis media were excluded from the analysis. A TDT RZ6 system was used to record the auditory brainstem response (ABR). Animals were anaesthetized with zoletil (20 mg/kg, I.M.) and placed in a soundproof chamber. Three stainless needle recording electrodes were inserted just under the skin and connected to the appropriate input on the PA4LI low impedance headstage: Channel 1: Ipsilateral ear (same side as stimulus delivery); Reference: contralateral ear; Ground: Vertex (base of skull). A computer-controlled TDT RZ6 System was used to generate the auditory pure tone and power amplified before fed to a closed-field speaker to deliver sound stimuli. The same pure tone stimuli were repeated 512 times, the sound pressure levels were increased in a step of 10 dB SPL (5 dB around threshold) from 20 dB SPL to 90 dB SPL after every 512 repeated trials. The lowest sound level which induced a brainstem response was regarded as the threshold. The hearing thresholds were measured at 4, 24, and 32 kHz. ABR recording was performed before surgery or dosing and on the 7th and 14th day after the formulation dosing. The ABR was recorded first from the left ear and then from the right ear."}, "guinea pig RWM [1]": {"system": "guinea pig RWM", "test": "RWM integrity after in vivo application", "conditions": "21 days post trans-tympanic injection, 0.1% peptide HCl salt", "procedure": "To assess the capacity for the RWM to recover after application of the […] peptide we record ABR thresholds with and without application of a 50 μL formulation including 0.1% […].HCL to the guinea pig RWM via trans-tympanic injection. […] Post-injection (21 days), the guinea pigs in both the […] exposed and control groups were sacrificed, and the temporal bone was removed as described in Example 5, section (a)."}, "[2]": {"conditions": "guinea pig, not told"}, "[3]": {"test": "cochlear perilymph exposure upon intratympanic administration", "conditions": "NT-3 formulation with permeation enhancer (peptide 1%)"}, "round window membrane": {"system": "round window membrane", "test": "in vitro permeability assay (apparent permeability, flux)", "format": "in vitro ADME", "conditions": "NT-3 incubated with 1% peptide; for NT-3 apparent permeability (Papp) compared to control: FIG. 22", "procedure": "To this end, an in vitro permeability assay was designed to test the apparent permeability of NT-3 against that of other compounds, the experimental design of which is shown in FIG. 1. After the initial formation of tight junctions, which was evaluated using transepithelial electrical resistance (TEER), 100 μL artificial perilymph (AP+) with API was added to the insert, and 500 μL AP+ was added to the bath. Cultures were incubated at 37° C. and 20 μL samples were collected at various time points.\n(§1) To further characterize the effects of peptide (XVI), the in vitro permeability assay was used to evaluate administration of NT-3 in either vehicle or 1% of peptide (XVI), as depicted in FIG. 18. In this experiment, cultures were incubated at 37° C. and 50 μL samples were collected at various time points. After 3.5 hours of incubation, the top and bottom media were collected separately and the insert was fixed for immunohistochemical staining to evaluate tight and adherens junctions."}, "[4]": {"system": "tight and adherens junctions", "test": "immunohistochemical staining of tight and adherens junctions after the in vitro permeability assay", "format": "cell-based", "conditions": "3.5 hours of incubation at 37° C., NT-3 in vehicle or with 1% peptide", "procedure": "as §1"}, "guinea pig RWM [5]": {"system": "guinea pig RWM", "test": "tight junction integrity of excised RWM in ex vivo culture", "format": "cell-based", "conditions": "1% peptide TFA salt in DMEM, 1 hour", "excerpt": "The […] peptide is hypothesized to interfere with cellular tight junctions. To assess if this mechanism is relevant to the RWM, we excise the RWM from adult guinea pigs (Elm Hill Labs, Chelmsford, Mass.) and stain for a variety of adherens and tight junction proteins. To extract the guinea pig RWM, the temporal bone was removed from freshly sacrificed guinea pig tissue and placed in PBS. An incision was then made in the roof of the bulla to expose the cochlea, followed by trimming of the temporal bone, bulla, and middle ear bones to expose the RWM. The round window niche was then removed from the cochlea and then cultured in DMEM with and without 1% […].TFA for 1 hour. This tissue was then fixed in a 4% PFA solution for 30 minutes followed by wash with PBS (3 times, 5-minute incubations). […]"}, "[6]": {"conditions": "background statement; cited from earlier work"}, "[7]": {"conditions": "background statement, test not described; cited from earlier work"}, "[8]": {"conditions": "listed as the peptide represented by formula (XVI)"}}, "note": "Read-outs that look alike come from different tables or passages of the source. Ends that are not written are not given here. Peptide text beside a SMILES is read from it.", "data": [{"compound": "CC(C)C[C@H](NC(=O)[C@H](C)NC(=O)[C@H](CC(C)C)NC(=O)[C@H](CCCCN)NC(=O)[C@H](CC(C)C)NC(=O)[C@H](C)NC(=O)[C@H](CC(C)C)NC(=O)[C@@H](N)CCCCN)C(=O)N[C@@H](CCCCN)C(=O)N[C@@H](C)C(=O)N[C@@H](CC(C)C)C(=O)N[C@@H](CCCCN)C(=O)N[C@@H](CC(C)C)C(=O)N[C@@H](C)C(=O)N[C@@H](C)C(=O)N[C@@H](CC(C)C)C(=O)N[C@@H](CCCCN)C(=O)N[C@@H](CC(C)C)C(=O)N[C@@H](C)C(=O)O", "note": "(H-KLALKLALKALKLAALKLA-OH; N-terminus and C-terminus assumed)", "values": [{"measurement": "ABR hearing test, change relative to Day 0", "setting": "ABR/hearing testing; 1 μL of 1% (w/v) peptide HCl salt in Poloxamer 407 (20% w/v), His buffer (pH6), Day 14", "value": "no change relative to Day 0"}, {"measurement": "ABR threshold shift", "setting": "ABR/hearing testing; 50 μL formulation including 0.1% peptide HCl salt, trans-tympanic, 7 and 14 days", "value": "no noticeable threshold shift"}, {"measurement": "tight junction proteins (actin, ZO-1, alpha-catenin) in RWM", "setting": "guinea pig RWM [1]", "value": "intact"}]}, {"compound": "OCc1ccccc1", "note": "[benzyl alcohol, reference compound]", "values": [{"measurement": "effect of permeation enhancer on cochlear NT-3 exposure / NT-3 delivery across the round window membrane", "setting": "[2]", "value": "incapable of substantially improving NT-3 delivery across the round window membrane"}]}, {"compound": "CC1(C)[C@@H](O[C@H]2O[C@H](C(=O)[O-])[C@@H](O)[C@H](O)[C@H]2O[C@@H]2O[C@H](C(=O)[O-])[C@@H](O)[C@H](O)[C@H]2O)CC[C@]2(C)[C@H]3C(=O)C=C4[C@@H]5C[C@@](C)(C(=O)O)CC[C@]5(C)CC[C@@]4(C)[C@]3(C)CC[C@@H]12.[K+].[K+]", "note": "[dipotassium glycyrrhizinate]", "values": [{"measurement": "effect of permeation enhancer on cochlear NT-3 exposure / NT-3 delivery across the round window membrane", "setting": "[3]", "value": "incapable of substantially improving NT-3 delivery across the round window membrane"}]}, {"compound": "CC(=O)NC(CCCCN)C(=O)NC(CC(C)C)C(=O)NC(C)C(=O)NC(CC(C)C)C(=O)NC(CCCCN)C(=O)NC(CC(C)C)C(=O)NC(C)C(=O)NC(CC(C)C)C(=O)NC(CCCCN)C(=O)NC(C)C(=O)NC(CC(C)C)C(=O)NC(CCCCN)C(=O)NC(CC(C)C)C(=O)NC(C)C(=O)NC(C)C(=O)NC(CC(C)C)C(=O)NC(CCCCN)C(=O)NC(CC(C)C)C(=O)NC(C)C(N)=O", "note": "(centres unmarked) [peptide (XVI)] (Ac-KLALKLALKALKLAALKLA-NH2; configuration not given here)", "values": [{"measurement": "NT-3 flux compared to control", "setting": "round window membrane; FIG. 21", "value": "greater flux"}, {"measurement": "NT-3 apparent permeability (Papp) compared to control", "setting": "round window membrane", "value": "greater"}, {"measurement": "NT-3 apparent permeability (Papp) compared to control", "setting": "round window membrane; [8]", "value": "increased NT-3 permeability"}, {"measurement": "cell junction appearance (immunohistochemical staining)", "setting": "[4]", "value": "gaps could be observed between cells"}, {"measurement": "cell junction appearance (immunohistochemical staining)", "setting": "[4]; [8]", "value": "gaps were observed between cells"}]}, {"compound": "KLALKLALKALKLAALKLA.TFA (also: TFA salt)", "values": [{"measurement": "junction protein structure in RWM", "setting": "guinea pig RWM [5]", "value": "disrupts occludin, ZO-1, and alpha-catenin, but not actin (as imaged via phalloidin), or beta-catenin structure"}]}, {"compound": "neurotrophin-3 [NT-3]", "values": [{"measurement": "pI", "setting": "[6]", "value": 9.5}, {"measurement": "EC50", "setting": "[7]", "value": "less than 20 ng/ml"}, {"measurement": "cell junction appearance (immunohistochemical staining)", "setting": "[4]", "value": "adherens junctions appeared normal"}]}]}
